From patent US8637470B2, “Small humanin-like peptides” (The Regents of the University of California, priority 2008, dated 2014)
“Also recorded” adds a separate entry of the source.

Experiments:
biotinylated-HN = biotinylated-HN (Homo sapiens, UniProt Q8IVG9); assay: Dot-blot binding to biotinylated-HN; conditions: 2, 5 or 10 nmol peptide dotted on nitrocellulose
Experimental: To test a dimerization hypothesis, we performed a dot-blot using biotinylated-HN. Two, 5 or 10 nmol IGF-I (negative control), HN (positive control) or SHLP peptide were dotted on to nitrocellulose membrane, and their ability to bind to biotinylated-HN was assessed immunologically. […] Specific interactions that occur may be determined using, e.g., dot blots with biotinylated SHLPs, and/or antibodies against specific SHLPs.

[1] = system: 22RV1 human prostate cancer cells; assay: Apoptosis ELISA (fragmentation of histone-associated DNA) in 22RV1 cells; format: cell-based; conditions: for Protective effect of SHLP on apoptosis after stattic pre-treatment: 22RV1, 20 μM stattic (STAT3 inhibitor), 100 nM peptide; for Effect of SHLP on apoptosis after PD98059 pre-treatment: 22RV1, 25 μM PD98059 (ERK1/2 inhibitor); for Apoptosis (fragmentation of histone-associated DNA): 22RV1, serum starved 24 h, then 24 h with 100 μM peptide
Experimental: SHLPs are anti-apoptotic in 22RV1 prostate cancer cells and NIT-1 β-cells. […] Mouse NIT-1 insulinoma β-cells and 22RV1 human prostate cancer cells were serum starved for 24 h, followed by 24 h incubation with 100 nM scrambled control peptide, HN or SHLPs. Apoptosis was assessed and quantified by ELISA for fragmentation of histone-associated DNA.
ERK activation is necessary for SHLP-induced inhibition of apoptosis in NIT-1 and 22RV1 cells. To determine the significance of ERK activation for apoptosis inhibition by SHLPs 2 and 3, PD98059 (PD), a specific chemical inhibitor of ERK1/2, was utilized. 22RV1 and NIT-1 cells were serum starved for 24 h in the presence or absence of 25 μM PD or 1 μM wortmannin (PI3-kinase inhibitor; negative control), followed by 24 h incubation with […] scrambled control peptide, SHLP2 or SHLP3. Apoptosis was then assessed by ELISA for fragmentation of histone-associated DNA.
STAT3 Activation is also necessary for SHLP-induced cell survival in 22RV1 cells. Since SHLPs 2 and 3 both stimulate STAT3 phosphorylation in addition to ERK activation, the hypothesis that STAT3 activation occurs downstream of ERK1/2 was tested using a specific chemical inhibitor against STAT3, stattic. 22RV1 cells were incubated for 24 h in SF media in the presence or absence of 20 μM stattic followed by 24 h incubation with 100 nM scrambled control peptide, SHLP2 or SHLP3. Apoptosis was assessed by ELISA for fragmentation of histone-associated DNA. […]

HAEC'S = assay: Intracellular ROS production (DHE fluorescence) in HAEC; format: cell-based; conditions: 0.1 nM peptide over night, oxidized LDL 100 μg protein/ml 30 min
Experimental: SHLPs suppress intracellular production of Reactive Oxygen Species (ROS). ROS production was monitored by following the conversion of the oxidant-sensitive dye dihydroethidine to the fluorescent ethidium (DHE) for measuring the cellular ability to produce Reactive Oxygen Species. HAEC'S plated on glass cover slips were incubated over night with 0.1 nM SHLP2 or SHLP6 versus regular cultured medium. For ROS measurement, cells were incubated for 30 min with 10 μM DHE in HBSS containing calcium magnesium and glucose at 37° c. Then cells were treated with Oxidized LDL 100 μg protein/ml for 30 minutes at 37° c. Samples were imaged under fluorescence microscope with a Texas Red filter corresponding to the fluorescence of DHE. Average fluorescence intensity was used to evaluate the changes of intracellular ROS generation, results are expressed in relative fluorescence unit (RFU) representing average intensity per cell area.

ERK = ERK activation in 22RV1 cells (immunoblotting, ELISA); format: cell-based, human; conditions: 22RV1, 100 nM; for ERK activation profile (immunoblotting): 15 min to 24 h
Experimental: Characterization of the intracellular signaling pathways activated by SHLPs. To determine a mechanism for the growth and apoptosis effects of SHLPs, SHLPs were tested for the ability to modulate activation of intracellular signaling pathways. 22RV1 cells in SF media were treated with 100 nM SHLP 1-5 and whole cell extracts were harvested after 15 min, 30 min, 2 h, 4 h, 8 h and 24 h. Proteins were separated by SDS-PAGE and analyzed by immunoblotting.
To test the hypothesis that SHLPs may act in concert to regulate intracellular signaling, 22RV1 cells were co-treated with SHLPs 2 and 3, and ERK activation was assessed.
Since HN causes activation of STAT3, SHLPs 2 and 3 were also tested for effects on STAT3. […] To more accurately quantify the ERK phosphorylation caused by SHLPs 2 and 3, we repeated the experiment as described above but used a commercially available ERK ELISA to assess ERK phosphorylation. Optimal ERK activation by SHLP2 was 9-fold after 24 h, whilst optimal activation by SHLP3 was 12-fold after 2 h (FIG. 5).

[2] = system: 22RV1 human prostate cancer cells; assay: Cell proliferation (cell number by MTT/MTS cleavage) in 22RV1 cells; format: cell-based; conditions: 22RV1, 100 nM peptide, 72 h
Experimental: SHLPs exert distinct effects on cell proliferation. Whether SHLPs have the capacity to influence cell proliferation, in addition to their intrinsic effects on apoptosis induction, was also investigated. Mouse NIT-1 insulinoma β-cells and 22RV1 human prostate cancer cells were serum starved for 24 h, followed by 72 h incubation with 100 nM scrambled control peptide, HN or SHLPs. Cell number, as a measure of cell proliferation, was assessed by cleavage of MTT substrate.
Pro-apoptotic effect on human prostate cancer cells in vitro. To assess the ability of SHLP6 to induce apoptosis in human prostate cancer cells, PC-3, 22RV1 or DU145 cells were incubated in serum free (SF) media for 24 h followed by 24 h incubation with 1 μM scrambled (control) peptide or SHLP6. Apoptosis was assessed by ELISA for fragmentation of histone-associated DNA. In each cell line tested, SHLP6 induced apoptosis by at least 2-fold (FIG. 2), confirming highly significant physiological effects of this novel peptide. To determine whether the effects of SHLP6 were specific to induction of apoptosis, or if it also elicited growth-inhibitory effects, PC-3, DU-145, 22RV1, LAPC4 and LNCaP cells were incubated in SF media for 24 h followed by 72 h incubation with 1 μM SHLP6. Cell number, as a measure of cell proliferation, was assessed by cleavage of MTS substrate.

Chain of biotinylated-HN (Q8IVG9 whole entry): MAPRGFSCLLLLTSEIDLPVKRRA

Row | Sequence | Binding to biotinylated-HN (dot-blot) (biotinylated-HN) | SHLP-induced cell survival after wortmannin pre-treatment ([1]; 22RV1, 1 μM wortmannin (PI3-kinase inhibitor)) | Protective effect of SHLP on apoptosis after stattic pre-treatment [1] | Effect of SHLP on apoptosis after PD98059 pre-treatment [1] | Apoptosis (fragmentation of histone-associated DNA) [1] | Intracellular ROS production (DHE fluorescence) (HAEC'S) | ERK activation profile (immunoblotting) (ERK) | Optimal ERK activation (ELISA) (ERK; after 24 h) [fold] | Cell number as a measure of cell proliferation [2] | Time to ERK activation (ERK) [min] | Optimal ERK activation (ELISA) (ERK; after 2 h) [fold]
1 | MGVKFFTLSTRFFPSVQRAVPLWTNS [SHLP2, small humanin-like peptide, mtDNA 2092-2170] | weak interaction; also recorded: binds | inhibited SHLP2-induced cell survival | abrogated the protective effects | abrogated | significantly inhibited | suppresses ROS production; also recorded: suppresses production of reactive oxygen species | delayed but sustained activation after 8 h | 9 | much greater effect | – | –
2 | MLGYNFSSFPCGTISIAPGFNFYRLYFIWVNGLAKVVW [SHLP3, small humanin-like peptide, mtDNA 1707-1821] | – | – | abrogated the protective effects | abrogated | significantly inhibited | – | activated ERK rapidly | – | much greater effect | ≤ 2 | 12
